Biological target: Full length KDM2B (Homo sapiens (Human), UniProt Q8NHM5)
Experiment: KDM2B TR-FRET assay for determining inhibitor IC50
Assay type: biochemical
Details: TR-FRET (HTRF), biotin-H3K36me2 peptide substrate, 2-OG 0.3 μM or 6 μM
From the text: KDM2B TR-FRET Assay for Determining Inhibitor IC50
The KDM2B TR-FRET Assay described above represents an additional embodiment of the invention.

Sequence of Full length KDM2B (Q8NHM5 whole entry): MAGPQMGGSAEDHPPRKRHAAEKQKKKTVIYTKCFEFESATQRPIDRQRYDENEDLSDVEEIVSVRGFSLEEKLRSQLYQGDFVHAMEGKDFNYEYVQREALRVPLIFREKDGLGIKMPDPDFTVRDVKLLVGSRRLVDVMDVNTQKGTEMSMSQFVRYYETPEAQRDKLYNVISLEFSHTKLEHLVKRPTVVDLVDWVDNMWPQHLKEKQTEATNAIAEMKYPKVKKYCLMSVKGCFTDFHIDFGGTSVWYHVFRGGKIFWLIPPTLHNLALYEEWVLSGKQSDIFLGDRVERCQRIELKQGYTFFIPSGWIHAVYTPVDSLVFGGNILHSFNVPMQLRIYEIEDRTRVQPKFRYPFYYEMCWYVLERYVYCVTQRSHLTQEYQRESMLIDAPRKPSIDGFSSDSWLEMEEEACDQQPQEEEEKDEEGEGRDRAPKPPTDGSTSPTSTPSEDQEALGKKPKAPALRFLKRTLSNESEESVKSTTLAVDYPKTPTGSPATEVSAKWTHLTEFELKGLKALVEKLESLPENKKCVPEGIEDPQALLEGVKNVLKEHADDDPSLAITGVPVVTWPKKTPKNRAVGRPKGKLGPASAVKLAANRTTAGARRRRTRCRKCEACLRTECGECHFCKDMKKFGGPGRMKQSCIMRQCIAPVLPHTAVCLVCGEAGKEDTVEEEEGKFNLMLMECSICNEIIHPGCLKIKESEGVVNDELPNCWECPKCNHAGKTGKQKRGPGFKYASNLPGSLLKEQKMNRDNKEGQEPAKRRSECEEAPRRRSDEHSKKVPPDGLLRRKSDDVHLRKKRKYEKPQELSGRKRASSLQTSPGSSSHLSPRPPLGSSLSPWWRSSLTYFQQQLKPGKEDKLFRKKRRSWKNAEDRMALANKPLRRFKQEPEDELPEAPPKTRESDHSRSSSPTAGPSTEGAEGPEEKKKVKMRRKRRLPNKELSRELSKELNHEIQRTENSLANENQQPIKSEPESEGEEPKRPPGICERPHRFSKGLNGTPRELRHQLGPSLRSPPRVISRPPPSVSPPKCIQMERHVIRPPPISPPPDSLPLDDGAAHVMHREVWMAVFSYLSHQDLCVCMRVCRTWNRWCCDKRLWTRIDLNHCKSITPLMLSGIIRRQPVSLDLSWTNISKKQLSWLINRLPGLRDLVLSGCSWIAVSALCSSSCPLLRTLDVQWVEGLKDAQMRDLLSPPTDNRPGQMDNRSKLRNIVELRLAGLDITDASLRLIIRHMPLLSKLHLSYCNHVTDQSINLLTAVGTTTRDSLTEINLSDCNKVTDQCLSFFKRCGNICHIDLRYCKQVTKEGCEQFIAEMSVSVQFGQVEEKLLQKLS

| Compound | IC50 [nM] |
| --- | --- |
| CCCN1CCCC(C(=O)c2ccc3c(cnn3C)c2)C1 (centres unmarked) [Example 94, (1-methylindazol-5-yl)-(1-propyl-3-piperidyl)methanone] | 122 |
| CCC1CCN(C2CC2)CC1C(=O)c1ccc2cc(OC)ccc2c1 (single isomer, unassigned) [Example 147b, (1-cyclopropyl-4-ethylpiperidin-3-yl)(6-methoxynaphthalen-2-yl)methanone] | 4.9 |
| COc1ccc2cc(C(=O)[C@H]3CN(C4CCC4)CC[C@H]3C)ccc2c1CC#N (stereo in doubt) [Example 182a, 2-(6-(1-cyclobutyl-4-methylpiperidine-3-carbonyl)-2-methoxynaphthalen-1-yl)acetonitrile] | 290 |
| O=C(c1cccc(Oc2ccc(F)cc2)c1)C1CCCN(CC2CC2)C1 (centres unmarked) [Example 27, [1-(cyclopropylmethyl)-3-piperidyl]-[3-(4-fluorophenoxy)phenyl]methanone] | 221 |
| O=C(c1ccc(-c2ccccc2)cc1)[C@H]1CCCN(CC2CC2)C1 [Example 33, [(3S)-1-(cyclopropylmethyl)-3-piperidyl]-(4-phenylphenyl)methanone] | 95.4 |
| COc1ccc2cc(C(=O)C3CCCN(C4CCC4)C3)ccc2c1CC#N (centres unmarked) [Example 55, 2-[6-(1-cyclobutylpiperidine-3-carbonyl)-2-methoxy-1-naphthyl]acetonitrile] | 13.2 |
| CS(=O)(=O)c1ccc2cc(C(=O)C3CCCN(C4CCC4)C3)ccc2c1 (centres unmarked) [Example 170, (1-cyclobutylpiperidin-3-yl)(6-(methylsulfonyl)naphthalen-2-yl)methanone] | 42.6 |
| CC[C@H]1CCN(C2CCC2)C[C@@H]1C(=O)c1ccc2c(CC#N)c(OC)ccc2c1 (stereo in doubt) [Example 183b, 2-(6-(1-cyclobutyl-4-ethylpiperidine-3-carbonyl)-2-methoxynaphthalen-1-yl)acetonitrile] | 2.06 |
| (1-(cyclopropylmethyl)-4-methylpiperidin-3-yl)(6-methoxynaphthalen-2-yl)methanone [Example 137a] | 70.6 |
| COc1ccc2cc(C(=O)C3CCCN(C4CCC4)C3)ccc2c1C (centres unmarked) [Example 52, (1-cyclobutyl-3-piperidyl)-(6-methoxy-5-methyl-2-naphthyl)methanone] | 39.4 |
| O=C(c1ccc(Oc2ccccc2)cc1)C1CCCN(CC2CC2)C1 (centres unmarked) [Example 23, [1-(cyclopropylmethyl)-3-piperidyl]-(4-phenoxyphenyl)methanone] | 2100 |
| COc1ccc2cc(C(=O)[C@H]3CCCN(CC4CC4)C3)ccc2c1 [Example 8, [(3S)-1-(cyclopropylmethyl)-3-piperidyl]-(6-methoxy-2-naphthyl)methanone] | 2700 |
| O=C(c1cccc(Cl)c1)[C@@H]1CCCN(CC2CC2)C1 (stereo in doubt) [Example 118a, (3-chlorophenyl)(1-(cyclopropylmethyl)piperidin-3-yl)methanone] | 6800 |
| C[C@@H]1CCN(C2CCCC2)C[C@H]1C(=O)c1ccc2cc(C#N)ccc2c1 (stereo in doubt) [Example 162b, 6-(1-cyclopentyl-4-methylpiperidine-3-carbonyl)-2-naphthonitrile] | 85.7 |
| COc1ccc2cc(C(=O)C3CCCN(C(C)C)C3)ccc2c1 (centres unmarked) [Example 81, (1-isopropyl-3-piperidyl)-(6-methoxy-2-naphthyl)methanone] | 6500 |
| NC(=O)c1cc(C(=O)C2CCCN(C3CCC3)C2)cc2ccccc12 (centres unmarked) [Example 47, 3-(1-cyclobutylpiperidine-3-carbonyl)naphthalene-1-carboxamide] | 99.7 |
| COc1ccc2cc(C(=O)C3CCCN(C4CCCC4)C3)ccc2c1CC#N (centres unmarked) [Example 54, 2-[6-(1-cyclopentylpiperidine-3-carbonyl)-2-methoxy-1-naphthyl]acetonitrile] | 39.5 |
| CCCN1CCCC(C(=O)c2ccc3c(c2)CCCC3)C1 (centres unmarked) [Example 107, (1-propyl-3-piperidyl)-tetralin-6-yl-methanone] | 99.8 |
| COc1ccc2cc(C(=O)[C@H]3CN(C4CCC4)CC[C@H]3C(C)C)ccc2c1 (single isomer, unassigned) [Example 143b, (1-cyclobutyl-4-isopropylpiperidin-3-yl)(6-methoxynaphthalen-2-yl)methanone] | 15.9 |
| CCC1CCN(C2CCC2)CC1C(=O)c1ccc2cc(OC)ccc2c1 (single isomer, unassigned) [Example 142c, (1-cyclobutyl-4-ethylpiperidin-3-yl)(6-methoxynaphthalen-2-yl)methanone] | 207 |
| O=C(c1ccc(Oc2ccccc2)cc1)[C@@H]1CCCN(CC2CC2)C1 [Example 30, [(3R)-1-(cyclopropylmethyl)-3-piperidyl]-(4-phenoxyphenyl)methanone] | 5900 |

| Compound | IC50 [nM] |
| --- | --- |
| NC(=O)c1cc(C(=O)C2CCCN(C3CCCC3)C2)cc2ccccc12 (centres unmarked) [Example 46, 3-(1-cyclopentylpiperidine-3-carbonyl)naphthalene-1-carboxamide] | 209 |
| COc1ccc2cc(C(=O)[C@@H]3CN(C4CCC4)CC[C@@H]3C)ccc2c1CC#N (stereo in doubt) [Example 182b, 2-(6-(1-cyclobutyl-4-methylpiperidine-3-carbonyl)-2-methoxynaphthalen-1-yl)acetonitrile] | 1.12 |
| C[C@@H]1CCN(CC2CC2)C[C@H]1C(=O)c1ccc2cc(C#N)ccc2c1 (stereo in doubt) [Example 160b, 6-(1-(cyclopropylmethyl)-4-methylpiperidine-3-carbonyl)-2-naphthonitrile] | 113 |
| O=C(c1ccc2ccccc2c1F)C1CCCN(CC2CC2)C1 (centres unmarked) [Example 128, (1-(cyclopropylmethyl)piperidin-3-yl)(1-fluoronaphthalen-2-yl)methanone] | 133 |
| COc1cccc(C(=O)[C@H]2CCCN(CC3CC3)C2)c1 (stereo in doubt) [Example 109b, (1-(cyclopropylmethyl)piperidin-3-yl)(3-methoxyphenyl)methanone] | 1300 |
| CC[C@@H]1CCN(C2CCC2)C[C@@H]1C(=O)c1ccc2c(CC#N)c(OC)ccc2c1 (stereo in doubt) [Example 183c, 2-(6-(1-cyclobutyl-4-ethylpiperidine-3-carbonyl)-2-methoxynaphthalen-1-yl)acetonitrile] | 78 |
| CCC[C@H]1CCN(C2CCC2)C[C@H]1C(=O)c1ccc2cc(OC)ccc2c1 (single isomer, unassigned) [Example 140c, (1-cyclobutyl-4-propylpiperidin-3-yl)(6-methoxynaphthalen-2-yl)methanone] | 5.48 |
| O=C(c1ccc2cc(CO)ccc2c1)C1CCCN(C2CCCC2)C1 (centres unmarked) [Example 154, (1-cyclopentylpiperidin-3-yl)(6-(hydroxymethyl)naphthalen-2-yl)methanone] | 183 |
| Cc1c(C(=O)C2CCCN(CC3CC3)C2)ccc2ccccc12 (centres unmarked) [Example 115, (1-(cyclopropylmethyl)piperidin-3-yl)(1-methylnaphthalen-2-yl)methanone] | 439 |
| CCCN1CCCC(C(=O)c2cc(OC)cc(OC)c2)C1 (centres unmarked) [Example 105, (3,5-dimethoxyphenyl)-(1-propyl-3-piperidyl)methanone] | 272 |
| CNC(=O)c1cc(C(=O)C2CCCN(CC3CC3)C2)cc2ccccc12 (centres unmarked) [Example 40, 3-[1-(cyclopropylmethyl)piperidine-3-carbonyl]-N-methyl-naphthalene-1-carboxamide] | 626 |
| O=C(c1ccc(-c2ccccn2)cc1)C1CCCN(CC2CC2)C1 (centres unmarked) [Example 38, [1-(cyclopropylmethyl)-3-piperidyl]-[4-(2-pyridyl)phenyl]methanone] | 596 |
| COc1ccc2cc(C(=O)C3CN(CC4CC4)CCC3OC)ccc2c1 (single isomer, unassigned) [Example 146a, (1-(cyclopropylmethyl)-4-methoxypiperidin-3-yl)(6-methoxynaphthalen-2-yl)methanone] | 382 |
| CCCN1CCCC(C(=O)c2ccc(C)c(C)c2)C1 (centres unmarked) [Example 106, (3,4-dimethylphenyl)-(1-propyl-3-piperidyl)methanone] | 247 |
| COc1ccc2cc(C(=O)C3CN(C4CCC4)CCN3Cc3ccc4ccccc4c3)ccc2c1 (centres unmarked) [Example 197, [4-cyclobutyl-1-(2-naphthylmethyl)piperazin-2-yl]-(6-methoxy-2-naphthyl)methanone] | 165 |
| N#Cc1ccc2cc(C(=O)C3CCCN(CC4CC4)C3)ccc2c1 (centres unmarked) [Example 159, 6-(1-(cyclopropylmethyl)piperidine-3-carbonyl)-2-naphthonitrile] | 68.8 |
| COc1cccc(C(=O)[C@@H]2CCCN(CC3CC3)C2)c1 (stereo in doubt) [Example 109a, (1-(cyclopropylmethyl)piperidin-3-yl)(3-methoxyphenyl)methanone] | 14100 |
| N#Cc1cc(C(=O)C2CCCN(CC3CC3)C2)cc2ccccc12 (centres unmarked) [Example 43, 3-[1-(cyclopropylmethyl)piperidine-3-carbonyl]naphthalene-1-carbonitrile] | 143 |
| CCCN1CC[C@H](C)[C@H](C(=O)c2ccc3c(CC#N)c(OC)ccc3c2)C1 (stereo in doubt) [Example 181b, 2-(2-methoxy-6-(4-methyl-1-propylpiperidine-3-carbonyl)naphthalen-1-yl)acetonitrile] | 12.3 |
| COc1ccc2cc(C(=O)C3CCCN(C4CCC4)C3)ccc2c1 (centres unmarked) [Example 76, (1-cyclobutyl-3-piperidyl)-(6-methoxy-2-naphthyl)methanone] | 619 |

— patent US10280149B2, “Therapeutic compounds and uses thereof” (GENENTECH, INC., priority 2015, dated 2019)
